We go through one molecule from paper PMC11796312, “Multifunctional, Fluorene‐Based Modulator of Cholinergic and GABAergic Neurotransmission as a Novel Drug Candidate for Palliative Treatment of Alzheimer's Disease” (Angewandte Chemie (International Ed. in English), 2024).

Where two headings read alike, the source gives them in different places.

Data set [1] can be described thus: Acute toxicity study i.p. (MTD, biochemistry, histopathology). The format is in vivo, mice. Conditions: both sexes, ICR-CD1, mouse, in vivo, ip, male and female mice; read-out: maximal tolerated dose (MTD). As to the method: Toxicology and pharmacokinetic in vivo study
ICR-CD1 mice weighing 20–25 g were purchased from Velaz (Prague, Czech Republic).
They were kept in an air-conditioned room with the light from 07:00 to 19:00 hours and were allowed access to standard food and tap water ad libitum. The mice were divided into groups […]
Ethical approval statement
The experimental animals were handled under the supervision of the Ethics Committee of the […]
706288/2023-1457) and the treatment of animals was in full accordance with ethical standards laid down in respective Czech and EU regulations.
Design of in vivo experiments
Acute toxicity study – Maximal tolerated dose, biochemical analysis, and histopathologic […]
Mice (ICR-CD1, Velaz, Prague, Czech Republic) were randomly assigned to the experimental groups of two males and two females per one applied dose of 6. 6 was administered intraperitoneally (i.p., 0.1 mL/10 g of animal weight; 1% Tween 80). Several doses were administered to identify the toxic profile of tested compounds and establish the Maximal Tolerated Dose (MTD, i.p.). Treated animals were intensively observed for signs of toxicity, such as respiratory, cardiovascular, and nervous system disability. Weight loss or reduced food consumption was assessed according to the FELASA classification[39] in the first two hours and then periodically for the subsequent 46 hours. The toxicity signs were classified according to a previously published study.[40]
All animals surviving the 48 hours were deeply euthanized by CO2 and subjected to basic macroscopic necropsy. The blood was collected for biochemical analysis, and selected organs (kidney and liver) were collected for histopathologic examination.
Venous blood was collected into heparinized tubes (Scanlab Systems, Prague, Czech Republic). Plasma was subsequently separated (3,000 × g for 10 min, 4 °C) using centrifuge U-320R (Boeco, Hamburg, Germany). The concentration of urea and creatinine and the activity of alanine aminotransferase (ALT), aspartate aminotransferase (AST), alkaline […]
phosphatase (ALP), amylase, and lactate dehydrogenase (LDH) were measured in the accredited biochemical laboratory of the Department of Clinical Biochemistry and Diagnostics, University Hospital, Hradec Kralove, Czech Republic. Statistical data analysis was performed through IBM SPSS Statistics version 26 (IBM, Armonk, NY, USA) using the Kolmogorov-Smirnov and Shapiro-Wilk tests to test data normality. Due to normally distributed data, the Student´s t-test was used to assess the differences compared with the control group (p ≤ 0.05).
Samples of the liver and kidney were used for standard histopathological examination. Organs were fixed with 10% neutral buffered formalin (Bamed s.r.o., Ceske Budejovice, Czech Republic), histologically processed, and stained with hematoxylin and eosin (both Merck) according to Pejchal et al.[41] The histopathological changes were evaluated using a BX-51 microscope (Olympus, Tokyo, Japan). […]
The time intervals
PK studies). The samples were centrifuged at 3,000 × g for 10 min (10 °C), and the plasma samples were stored at -80 °C until the HPLC analysis.

A short description of data set [2]: Pharmacokinetic study after i.g. administration. The format is in vivo. Conditions: mice.
Protocol: Pharmacokinetic study after i.p. and i.g administration
mg/kg), blood samples were collected from mice under deep terminal anesthesia directly by cardiac puncture into heparinized 1.5 mL tubes at selected time intervals.
The blood in brain vessels would interfere with the assay of actual brain tissue concentrations.
Therefore, the animals were perfused transcardially with saline solution (0.9% NaCl) for 5 min (10 mL/min). After perfusion, the skull was opened, and the brain was carefully removed and immediately stored at -80 °C until the HPLC analysis.
UHPLC-MS method for pharmacokinetics study
Ultra high-performance liquid chromatography system consisting of Ultimate 3000 RS pump Dionex (Thermo Scientific, San Jose, CA, USA) coupled with high-resolution mass spectrometer with orbitrap analyzer (Q Exactive Focus, Thermo Scientific, San Jose, CA, USA) was used in quantitative analyses of 6 in plasma and brain homogenate. According to the EMA[43] and FDA[42] guidelines on Bioanalytical method validation, the method was fully validated for plasma and partially for brain homogenate.
Before analysis, 50 μL of plasma or brain homogenate was precipitated with an internal
standard of 200 μL acetonitrile (ACN). The mixture was vortexed for 1 min at 1,500 rpm and
centrifuged at 12,074 g for 5 min at 20 °C. The supernatant was then transferred to an
injection vial and analyzed.
mm ID (Phenomenex, Torrance, CA, USA), protected with a guard column SecurityGuard
was performed in gradient elution mode with a flow rate of 0.6 mL/min and the following
composition of mobile phase: A) 0.1% FA in water (v/v) and B) 0.1% FA in ACN/MeOH in
The column was kept at 45 °C during
analysis. Samples were held at 10 °C in a light-tight autosampler unit.
Heated-Electrospray Ionization II interface (HESI-II) in positive ion mode was used with the
following settings: spray voltage; +3.5 kV, S-lens RF level; +70 V, capillary temperature 350
°C, auxiliary gas heater temperature; 350 °C, sheet, and auxiliary gas flow; 45 and 15
arbitrary units, respectively. Full MS mode was used at resolution (m/𝛥m) ̴70,000 for
Xcalibur software (v 4.0) was used for data evaluation.

`O[C@H](CNCC1CC1)[C@H](Cc1ccccc1)NC1c2ccccc2-c2ccccc21` [Compound 6]: the MTD at 48 h in data set [1] is 10 mg/kg. For the same molecule, in data set [2] (ICR-CD1, mouse, brain and plasma, po, 10 mg/kg, 10 mg/kg i.g., read-out: Kp (AUCbrain/AUCplasma), brain-to-plasma ratio), the Kp was found to be 1.98. Also, the Tmax in data set [2] (ICR-CD1, mouse, brain, po, 10 mg/kg, 10 mg/kg i.g., read-out: brain Tmax (converted)) was 3.33 h; in data set [2] (ICR-CD1, mouse, plasma, po, 10 mg/kg, 10 mg/kg i.g., read-out: plasma Tmax (converted)) it was 1.33 h. In data set [2] (ICR-CD1, mouse, plasma, po, 10 mg/kg, 10 mg/kg i.g.), the Cmax came out at 120 ± 30.7 ng/mL. Further, the half-life in data set [2] (ICR-CD1, mouse, plasma, po, 10 mg/kg, 10 mg/kg i.g., plasma, read-out: Half-life) was found to be 3.54 ± 0.449 h; in data set [2] (10 mg/kg i.g., plasma, 10 mg/kg), 3.53 h. Further, the Vd/F in data set [2] (ICR-CD1, mouse, plasma, po, 10 mg/kg, 10 mg/kg i.g., plasma, read-out: Vss/F) was determined as 120 ± 22.1 L/kg; in data set [2] (ICR-CD1, mouse, plasma, po, 10 mg/kg, 10 mg/kg i.g., plasma, read-out: Vz/F) it was 102 ± 22.9 L/kg. The MRT in data set [2] (ICR-CD1, mouse, po, 10 mg/kg i.g., plasma) is 6.08 h. Moreover, the k el in data set [2] (ICR-CD1, mouse, po, 10 mg/kg i.g., plasma, read-out: λz (converted)) is 6e-05 s⁻¹. The “plasma AUCtotal i.g. as % of AUCtotal after i.p. administration of the same dose” value in data set [2] (10 mg/kg) was “approximately 60%”. Moreover, the “brain AUCtotal” value in data set [2] (10 mg/kg i.g.) was 68,547.70 ± 9,216.46 min.ng/g. The “brain Cmax” value in data set [2] (10 mg/kg i.g.) turned out to be 158.63 ± 20.04 ng/g. The “plasma AUCtotal” value in data set [2] (10 mg/kg i.g.) is given as 34,630.80 ± 4,866.51 min.ng/mL. The same molecule returned a CL in data set [2] (10 mg/kg i.g., plasma) of 320 ± 50 mL/min/kg. In addition, in data set [2] (10 mg/kg i.g., 10 mg/kg), the “plasma Cmax” value is reported as 120 ng/mL.
